Source: patent publication US4371537A, “Sulfur-substituted phenoxypyridines having antiviral activity” (The Dow Chemical Company, priority 1981, dated 1983)
In brackets after ≈: the same amount, converted by molar mass.

Key:
[1] = tested on: Hanks Untyped; experiment: Inhibition of cytopathic effect in WI-38 cell culture tubes, Hanks Untyped; assay type: cell-based, rhinovirus; settings: Enterovirus, WI-38 cells, read-out: Inhibition grade, Hanks Untyped; for inhibition at 25 µg/mL: 25 μg/ml
Protocol: (§1) The test compound was dissolved in an appropriate solvent (generally dimethyl sulfoxide) and incubated at 56° C. for at least 15 minutes and this solution was then used to prepare various test solutions having the desired concentration of test compound in preheated WI maintenance medium (49% Eagles, 49% medium 199, 2% fetal calf serum and antibiotics).
(§2) Triplicate cell culture tubes (WI-38 human embryonic lung cell culture tubes) were fed with 1 ml of medium containing the compound at specified concentrations and inoculated with 3-300 TCID50 (3-300 times the tissue culture infective dose 50, i.e., the dose required to infect 50% of the cell cultures tested). Simultaneous viral titrations were performed. The tissue cultures were supplemented with fresh medium when necessary (around 3-4 days) until viral titrations were completed.
(§3) The cell culture tubes were examined dialy for cytopathic effect. […] Comparisons were made at that time with the percentage of cell sheet destruction in tubes containing virus compound mixtures. Observed differences of 75% or more were graded "+", 74-50% as "±", and less than 50% as "-" inhibition.

[2] = tested on: Rhinovirus Type 19; experiment: Inhibition of cytopathic effect in WI-38 cell culture tubes, rhinovirus type 19; assay type: cell-based; settings: Enterovirus, WI-38 cells, read-out: Inhibition grade, Rhinovirus Type 19; for inhibition at 25 µg/mL: 25 μg/ml
Protocol: as §1, §2, §3

[3] = tested on: Rhinovirus Type 4; experiment: Inhibition of cytopathic effect in WI-38 cell culture tubes, rhinovirus type 4; assay type: cell-based; settings: Enterovirus, WI-38 cells, read-out: Inhibition grade, Rhinovirus Type 4; for inhibition at 25 µg/mL: 25 μg/ml
Protocol: as §1, §2, §3

[4] = tested on: Rhinovirus Type 39; experiment: Inhibition of cytopathic effect in WI-38 cell culture tubes, rhinovirus type 39; assay type: cell-based; settings: Enterovirus, WI-38 cells, read-out: Inhibition grade, Rhinovirus Type 39; for inhibition at 25 µg/mL: 25 μg/ml
Protocol: as §1, §2, §3

[5] = tested on: rhinovirus type 2 (RV-2); experiment: Tissue culture testing, rhinovirus type 2 in HeLa cells; assay type: cell-based; settings: Enterovirus, 48 and 72 hours, NA = not active at the standard test conditions, read-out: RV-2: lowest concentration of the compound necessary to cause a 50 percent reduction in cytopathic effect
In short: (§4)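 Pretreat HeLa monolayer with test compound (Eagle's/FCS); infect; include cell controls lacking virus; read lowest effective concentration in μg/ml.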

[6] = tested on: rhinovirus type 8 (RV-8); experiment: Tissue culture testing, rhinovirus type 8 in HeLa cells; assay type: cell-based; settings: Enterovirus, 48 and 72 hours, NA = not active at the standard test conditions, read-out: RV-8: lowest concentration of the compound necessary to cause a 50 percent reduction in cytopathic effect
Protocol: (§5) Monolayered HeLa cells in 16 millimeter (mm) tissue culture dishes were treated with 1 ml of culture medium (Eagles medium supplemented with fetal calf serum) containing subject compound at an appropriate concentration or containing no compound at all. Culture media such as those described herein are more fully described in standard texts, as for example, Kuchler's Biochemical Methods in Cell Culture and Virology, Dowden, Hutchinson and Ross, Inc., Stroudsberg, PA (1977). Following treatment, cells were challenged with 0.05 ml of rhinovirus type 1A (RV-1A), rhinovirus type 2 (RV-2) or Coxsackie A21 virus (Cox A21) in culture medium. Some of the compounds were also tested against rhinovirus type 5 (RV-5), rhinovirus type 8 (RV-8) or rhinovirus type 64 (RV-64). Cell controls received no viruses.
(§6) ^2 Lowest concentration of the compound (μg/ml) necessary to cause

[7] = tested on: Rhinovirus Type 58; experiment: Inhibition of cytopathic effect in WI-38 cell culture tubes, rhinovirus type 58; assay type: cell-based; settings: Enterovirus, WI-38 cells, read-out: Inhibition grade, Rhinovirus Type 58; for inhibition at 25 µg/mL: 25 μg/ml
Protocol: as §1, §2, §3

[8] = tested on: Rhinovirus Type 64; experiment: Inhibition of cytopathic effect in WI-38 cell culture tubes, rhinovirus type 64; assay type: cell-based; settings: Enterovirus, WI-38 cells, read-out: Inhibition grade, Rhinovirus Type 64; for inhibition at 25 µg/mL: 25 μg/ml
Protocol: as §1, §2, §3

[9] = tested on: Rhinovirus Type 8; experiment: Inhibition of cytopathic effect in WI-38 cell culture tubes, rhinovirus type 8; assay type: cell-based; settings: Enterovirus, WI-38 cells, read-out: Inhibition grade, Rhinovirus Type 8; for inhibition at 25 µg/mL: 25 μg/ml
Protocol: as §1, §2, §3

[10] = tested on: Rhinovirus Type 21; experiment: Inhibition of cytopathic effect in WI-38 cell culture tubes, rhinovirus type 21; assay type: cell-based; settings: Enterovirus, WI-38 cells, read-out: Inhibition grade, Rhinovirus Type 21; for inhibition at 25 µg/mL: 25 μg/ml
Protocol: as §1, §2, §3

[11] = tested on: Rhinovirus Type 74; experiment: Inhibition of cytopathic effect in WI-38 cell culture tubes, rhinovirus type 74; assay type: cell-based; settings: Enterovirus, WI-38 cells, read-out: Inhibition grade, Rhinovirus Type 74; for inhibition at 25 µg/mL: 25 μg/ml
Protocol: as §1, §2, §3

[12] = tested on: Rhinovirus Type 6; experiment: Inhibition of cytopathic effect in WI-38 cell culture tubes, rhinovirus type 6; assay type: cell-based; settings: Enterovirus, WI-38 cells, read-out: Inhibition grade, Rhinovirus Type 6; for inhibition at 25 µg/mL: 25 μg/ml
Protocol: as §1, §2, §3

[13] = tested on: Rhinovirus Type 13; experiment: Inhibition of cytopathic effect in WI-38 cell culture tubes, rhinovirus type 13; assay type: cell-based; settings: Enterovirus, WI-38 cells, read-out: Inhibition grade, Rhinovirus Type 13; for inhibition at 25 µg/mL: 25 μg/ml
Protocol: as §1, §2, §3

[14] = tested on: Rhinovirus Type 81; experiment: Inhibition of cytopathic effect in WI-38 cell culture tubes, rhinovirus type 81; assay type: cell-based; settings: Enterovirus, WI-38 cells, read-out: Inhibition grade, Rhinovirus Type 81; for inhibition at 25 µg/mL: 25 μg/ml
Protocol: as §1, §2, §3

[15] = Cytotoxicity in tissue culture testing (HeLa monolayers); assay type: cell-based; settings: human; HeLa cells; observed at 48 and 72 hours post-treatment; read-out: Cytotoxicity: concentration of the compound found to be toxic to the cell
In short: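 Compound in Eagle's medium plus fetal calf serum was applied to monolayered HeLa cells; cultures were then infected with RV-1A, RV-2 or Coxsackie A21, with RV-5, RV-8 or RV-64 for some compounds. Controls received no compound or no virus.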

[16] = tested on: Rhinovirus Type 56; experiment: Inhibition of cytopathic effect in WI-38 cell culture tubes, rhinovirus type 56; assay type: cell-based; settings: Enterovirus, WI-38 cells, read-out: Inhibition grade, Rhinovirus Type 56; for inhibition at 25 µg/mL: 25 μg/ml
Protocol: as §1, §2, §3

[17] = tested on: Rhinovirus Type 17; experiment: Inhibition of cytopathic effect in WI-38 cell culture tubes, rhinovirus type 17; assay type: cell-based; settings: Enterovirus, WI-38 cells, read-out: Inhibition grade, Rhinovirus Type 17; for inhibition at 25 µg/mL: 25 μg/ml
Protocol: as §1, §2, §3

[18] = tested on: rhinovirus type 1A (RV-1A); experiment: Tissue culture testing, rhinovirus type 1A in HeLa cells; assay type: cell-based; settings: Enterovirus, 48 and 72 hours, NA = not active at the standard test conditions, read-out: RV-1A: lowest concentration of the compound necessary to cause a 50 percent reduction in cytopathic effect
In short: as §4

[19] = tested on: Rhinovirus Type 68; experiment: Inhibition of cytopathic effect in WI-38 cell culture tubes, rhinovirus type 68; assay type: cell-based; settings: Enterovirus, WI-38 cells, read-out: Inhibition grade, Rhinovirus Type 68; for inhibition at 25 µg/mL: 25 μg/ml
Protocol: as §1, §2, §3

[20] = tested on: Rhinovirus Type 60; experiment: Inhibition of cytopathic effect in WI-38 cell culture tubes, rhinovirus type 60; assay type: cell-based; settings: Enterovirus, WI-38 cells, read-out: Inhibition grade, Rhinovirus Type 60; for inhibition at 25 µg/mL: 25 μg/ml
Protocol: as §1, §2, §3

[21] = tested on: Rhinovirus Type 10; experiment: Inhibition of cytopathic effect in WI-38 cell culture tubes, rhinovirus type 10; assay type: cell-based; settings: Enterovirus, WI-38 cells, read-out: Inhibition grade, Rhinovirus Type 10; for inhibition at 25 µg/mL: 25 μg/ml
Protocol: as §1, §2, §3

[22] = tested on: rhinovirus type 64 (RV-64); experiment: Tissue culture testing, rhinovirus type 64 in HeLa cells; assay type: cell-based; settings: Enterovirus, 48 and 72 hours, NA = not active at the standard test conditions, read-out: RV-64: lowest concentration of the compound necessary to cause a 50 percent reduction in cytopathic effect
Protocol: as §5, §6

Structure (SMILES)	EC50 [5] [µg/mL]	EC50 [6] [µg/mL]	MCC [15] [µg/mL]	EC50 [18] [µg/mL]	EC50 [22] [µg/mL]	inhibition at 25 µg/mL [1] [%]	inhibition at 25 µg/mL [2] [%]	inhibition at 25 µg/mL [3] [%]	inhibition at 25 µg/mL [4] [%]	inhibition at 25 µg/mL [7] [%]	inhibition at 25 µg/mL [8] [%]	inhibition at 25 µg/mL [9] [%]	inhibition at 25 µg/mL [10] [%]	inhibition at 25 µg/mL [11] [%]	inhibition at 25 µg/mL [12] [%]	inhibition at 25 µg/mL [13] [%]	inhibition at 25 µg/mL [14] [%]	inhibition at 25 µg/mL [16] [%]	inhibition at 25 µg/mL [17] [%]	inhibition at 25 µg/mL [19] [%]	also measured
CCS(=O)(=O)c1ccc(Oc2ccc(Cl)cc2)nc1 [Example 42, 2-(4-chlorophenoxy)-5-(ethylsulfonyl)pyridine]	3.12 (≈ 10.5 µM)	~50 (≈ 168 µM)	≥ 50	6.25 (≈ 21 µM)	≤ 3.12	–	–	–	–	–	–	–	–	–	–	–	–	–	–	–	inhibition at 12.5 µg/mL ([1]; 12.5 μg/ml): ≥ 75%; inhibition at 12.5 µg/mL ([2]; 12.5 μg/ml): ≥ 75%; inhibition at 12.5 µg/mL ([3]; 12.5 μg/ml): ≥ 75%; inhibition at 12.5 µg/mL ([4]; 12.5 μg/ml): < 50%; inhibition at 12.5 µg/mL ([7]; 12.5 μg/ml): ≥ 75%; inhibition at 12.5 µg/mL ([8]; 12.5 μg/ml): ≥ 75%; inhibition at 12.5 µg/mL ([9]; 12.5 μg/ml): < 50%; inhibition at 12.5 µg/mL ([10]; 12.5 μg/ml): 50 to 74%; inhibition at 12.5 µg/mL ([11]; 12.5 μg/ml): ≥ 75%; inhibition at 12.5 µg/mL ([12]; 12.5 μg/ml): ≥ 75%; inhibition at 12.5 µg/mL ([13]; 12.5 μg/ml): < 50%; inhibition at 12.5 µg/mL ([14]; 12.5 μg/ml): ≥ 75%; inhibition at 12.5 µg/mL ([16]; 12.5 μg/ml): 50 to 74%; inhibition at 12.5 µg/mL ([17]; 12.5 μg/ml): ≥ 75%; inhibition at 12.5 µg/mL ([19]; 12.5 μg/ml): ≥ 75%; inhibition at 12.5 µg/mL ([20]; 12.5 μg/ml): ≥ 75%; inhibition at 12.5 µg/mL ([21]; 12.5 μg/ml): 50 to 74%
CCS(=O)(=O)c1ccc(Oc2ccc(C(=O)c3ccccc3)cc2)nc1 [Example 43, (4-((5-(ethylsulfonyl)-2-pyridinyl)oxy)phenyl)phenylmethanone]	6.25 (≈ 17 µM)	25 (≈ 68 µM)	25	≤ 3.12	6.25 (≈ 17 µM)	–	–	–	–	–	–	–	–	–	–	–	–	–	–	–	inhibition at 3 µg/mL ([1]; 3.0 μg/ml): 50 to 74%; inhibition at 3 µg/mL ([2]; 3.0 μg/ml): < 50%; inhibition at 3 µg/mL ([3]; 3.0 μg/ml): < 50%; inhibition at 3 µg/mL ([4]; 3.0 μg/ml): < 50%; inhibition at 3 µg/mL ([7]; 3.0 μg/ml): < 50%; inhibition at 3 µg/mL ([8]; 3.0 μg/ml): < 50%; inhibition at 3 µg/mL ([9]; 3.0 μg/ml): < 50%; inhibition at 3 µg/mL ([10]; 3.0 μg/ml): < 50%; inhibition at 3 µg/mL ([11]; 3.0 μg/ml): 50 to 74%; inhibition at 3 µg/mL ([12]; 3.0 μg/ml): < 50%; inhibition at 3 µg/mL ([13]; 3.0 μg/ml): < 50%; inhibition at 3 µg/mL ([14]; 3.0 μg/ml): ≥ 75%; inhibition at 3 µg/mL ([16]; 3.0 μg/ml): < 50%; inhibition at 3 µg/mL ([17]; 3.0 μg/ml): ≥ 75%; inhibition at 3 µg/mL ([19]; 3.0 μg/ml): 50 to 74%; inhibition at 3 µg/mL ([20]; 3.0 μg/ml): 50 to 74%; inhibition at 3 µg/mL ([21]; 3.0 μg/ml): < 50%
CCS(=O)(=O)c1ccc(Oc2ccc(Cl)c(Cl)c2)nc1 [Example 47, 2-(3,4-dichlorophenoxy)-5-(ethylsulfonyl)pyridine]	0.625 (≈ 1.88 µM)	–	> 50	0.312 (≈ 0.941 µM)	≤ 0.312	≥ 75	≥ 75	≥ 75	50 to 74	≥ 75	≥ 75	< 50	≥ 75	≥ 75	50 to 74	< 50	≥ 75	≥ 75	≥ 75	≥ 75	inhibition at 25 µg/mL [20]: ≥ 75%; inhibition at 25 µg/mL [21]: ≥ 75%
CS(=O)(=O)c1ccc(Oc2ccc(C(=O)c3ccccc3)cc2)nc1 [Example 31, (4-((5-(methylsulfonyl)-2-pyridinyl)oxy)phenyl)phenylmethanone]	5 (≈ 14.1 µM)	6.25 (≈ 17.7 µM)	> 100	12.5 (≈ 35.4 µM)	2.5 (≈ 7.07 µM)	≥ 75	≥ 75	≥ 75	< 50	≥ 75	50 to 74	< 50	50 to 74	≥ 75	50 to 74	< 50	≥ 75	≥ 75	≥ 75	≥ 75	inhibition at 25 µg/mL [20]: ≥ 75%; inhibition at 25 µg/mL [21]: ≥ 75%
